# Measured values: BindingDB's records for doi:10.1093/toxsci/47.2.181 (University of Texas M. D. Anderson Cancer Center, 1999)
# Biological target: T1, Solute carrier family 22 member 2 (Rattus norvegicus, UniProt Q9R0W2)
# T1 sequence (Q9R0W2 whole entry): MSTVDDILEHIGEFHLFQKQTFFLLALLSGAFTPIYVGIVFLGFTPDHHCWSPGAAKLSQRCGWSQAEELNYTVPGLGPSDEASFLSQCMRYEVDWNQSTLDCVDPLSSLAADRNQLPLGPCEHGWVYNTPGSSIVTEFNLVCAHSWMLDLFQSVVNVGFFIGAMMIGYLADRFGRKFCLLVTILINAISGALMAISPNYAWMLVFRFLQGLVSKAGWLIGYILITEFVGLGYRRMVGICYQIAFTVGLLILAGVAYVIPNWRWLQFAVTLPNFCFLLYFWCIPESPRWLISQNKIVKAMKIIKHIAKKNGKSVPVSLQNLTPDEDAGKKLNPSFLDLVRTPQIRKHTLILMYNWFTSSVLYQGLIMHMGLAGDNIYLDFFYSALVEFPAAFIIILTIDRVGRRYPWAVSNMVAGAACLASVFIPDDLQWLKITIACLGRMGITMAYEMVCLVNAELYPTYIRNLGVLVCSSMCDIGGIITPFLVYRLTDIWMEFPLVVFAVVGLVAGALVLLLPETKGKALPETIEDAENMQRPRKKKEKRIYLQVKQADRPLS
# Assay: TP_TRANSPORTER: inhibition of TEA uptake (apical to cell) in OCT2-expressing NIH3T3 cells
compound,measurement,value
[NH2][Pt]([NH2])([Cl])[Cl] [cis-Platinum diamminedichloride],Ki,925 µM
